Experimental data from patent US20260374754A1, “N-((ISOQUINOLIN-6-YL)METHYL)-1H-PYRAZOLE-4-CARBOXAMIDE DERIVATIVES AS PLASMA KALLIKREIN INHIBITORS FOR THE TREATMENT OF HEREDITARY ANGIODEMA” (Takeda Pharmaceutical Company Limited, priority 2022, published 2026).
Counter-ions that a name gives are not always drawn.

Target: human activated kallikrein enzyme (Homo sapiens, UniProt P03952)
Assay: Inhibition of human activated plasma kallikrein, fluorogenic PFR-AMC substrate, 500 pM enzyme format
Assay type: biochemical
Settings: 500 pM activated kallikrein; 300 μM PFR-AMC; 30 min preincubation; 10 min room temperature; pH 7.5; read-out: Primary Dose Response Assay: Average EC50
Outline: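 500 pM activated kallikrein preincubated 30 min at room temperature with inhibitors in pH 7.5 Tris/EDTA/NaCl buffer with PEG-400 and Triton X-100. Reaction started with 300 μM PFR-AMC, run 10 min at room temperature; AMC fluorescence read at ex 380/em 460 nm.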

Chain of human activated kallikrein enzyme (P03952 391-638 limits assumed): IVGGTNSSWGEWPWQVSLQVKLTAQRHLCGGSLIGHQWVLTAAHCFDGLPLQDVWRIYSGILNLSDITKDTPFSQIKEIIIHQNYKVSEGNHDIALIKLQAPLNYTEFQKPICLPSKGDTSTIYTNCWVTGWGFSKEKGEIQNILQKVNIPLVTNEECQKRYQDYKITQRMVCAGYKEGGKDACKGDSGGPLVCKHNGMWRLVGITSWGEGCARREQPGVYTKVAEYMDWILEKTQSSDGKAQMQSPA
Chain of human activated kallikrein enzyme (P03952 20-390 partner limits assumed): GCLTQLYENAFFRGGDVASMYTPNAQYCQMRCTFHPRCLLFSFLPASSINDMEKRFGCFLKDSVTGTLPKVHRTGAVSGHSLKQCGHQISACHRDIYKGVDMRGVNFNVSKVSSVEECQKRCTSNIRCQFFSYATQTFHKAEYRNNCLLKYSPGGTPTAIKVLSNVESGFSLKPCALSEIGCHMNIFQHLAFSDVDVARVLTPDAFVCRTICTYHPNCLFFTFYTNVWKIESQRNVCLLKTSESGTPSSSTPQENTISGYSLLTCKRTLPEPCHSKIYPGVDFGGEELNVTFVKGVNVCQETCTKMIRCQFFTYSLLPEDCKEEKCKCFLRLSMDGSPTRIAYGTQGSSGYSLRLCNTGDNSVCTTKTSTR

SMILES | EC50 [nM]
Cc1cc2c(N)nccc2c(C)c1CNC(=O)c1cnn(Cc2cccc(C(F)(F)F)c2)c1 [Example 97, N-((1-amino-5,7-dimethylisoquinolin-6-yl)methyl)-1-(3-(trifluoromethyl)benzyl)-1H-pyrazole-4-carboxamide] | 10 to 100
CCCCc1cc(COc2cc(NCc3c(C)cc4c(N)nccc4c3C)ncn2)cc2cc(Cl)c[n+]([O-])c12 [Example 399, 6-(((6-(((1-amino-5,7-dimethylisoquinolin-6-yl)methyl)amino)pyrimidin-4-yl)oxy)methyl)-8-butyl-3-chloroquinoline 1-oxide] | 10 to 100
Cc1cc2c(N)nccc2c(C)c1CNc1nccc2c1cnn2Cc1cn2cc(C3CC3)ccc2n1 [Example 266] | 100 to 1000
Cc1cc2c(N)nccc2c(C)c1CNc1cc(NCc2ccc(OCC(=O)N(C)C)cc2)ncn1 [Example 377, 2-(4-(((6-(((1-amino-5,7-dimethylisoquinolin-6-yl)methyl)amino)pyrimidin-4-yl)amino)methyl)phenoxy)-N,N-dimethylacetamide] | < 1
Cc1cc2c(N)nccc2c(C)c1CNc1cc(NCc2ccccc2)cnn1 [Example 448, N^3-((1-amino-5,7-dimethylisoquinolin-6-yl)methyl)-N5-benzylpyridazine-3,5-diamine] | 100 to 1000
Cc1cc2c(N)nccc2c(C)c1CNC(=O)c1cnn(Cc2ccc3ncc(C4CC4)cc3c2)c1 [Example 28, N-((1-amino-5,7-dimethylisoquinolin-6-yl)methyl)-1-((3-cyclopropylquinolin-6-yl)methyl)-1H-pyrazole-4-carboxamide] | < 1
Cc1cc2c(N)nccc2c(C)c1CNc1cc(NCc2ccc3ncc(Cl)cc3c2)ncn1 [Example 309, N^4-((1-amino-5,7-dimethylisoquinolin-6-yl)methyl)-N^6-((3-chloroquinolin-6-yl)methyl)pyrimidine-4,6-diamine] | < 1
Cc1cc2c(N)nccc2c(C)c1CNC(=O)c1cnn(Cc2ccc(C(C)C(=O)N(C)C)cc2)c1 (centres unmarked) [Example 119, N-((1-amino-5,7-dimethylisoquinolin-6-yl)methyl)-1-(4-(1-(dimethylamino)-1-oxopropan-2-yl)benzyl)-1H-pyrazole-4-carboxamide] | < 1
Cc1ccc2nc(C(C)n3cc(C(=O)NCc4c(C)cc5c(N)nccc5c4C)cn3)cn2c1 (centres unmarked) [Example 13, N-((1-amino-5,7-dimethylisoquinolin-6-yl)methyl)-1-(1-(6-methylimidazo[1,2-a]pyridin-2-yl)ethyl)-1H-pyrazole-4-carboxamide] | < 1
Cc1cc2c(N)nccc2c(C)c1CNC(=O)c1cnn(Cc2cn3c(Br)cccc3n2)c1 [Example 139, N-((1-amino-5,7-dimethylisoquinolin-6-yl)methyl)-1-((5-bromoimidazo[1,2-a]pyridin-2-yl)methyl)-1H-pyrazole-4-carboxamide] | < 1
Cc1cc2c(N)nccc2c(C)c1CNc1cc2c(ccn2Cc2ccc3ncccc3c2)cn1 [Example 517, 5,7-dimethyl-6-(((1-(quinolin-6-ylmethyl)-1H-pyrrolo[3,2-c]pyridin-6-yl)amino)methyl)isoquinolin-1-amine] | 100 to 1000
CCOC(=O)[C@H]1[C@@H]2CN(C(=O)Cc3ccc(Cn4cc(C(=O)NCc5c(C)cc6c(N)nccc6c5C)cn4)cc3)C[C@@H]21 [Example 212, ethyl (1R,SS,6r)-3-(2-(4-((4-(((1-amino-5,7-dimethylisoquinolin-6-y1)methyl)carbamoyl)-1H-pyrazol-1-yl)methyl)phenyl)acetyl)-3-azabicyclo[3.1.0]hexane-6-carboxylate] | 10 to 100
Cc1cc2c(N)nccc2c(C)c1CNc1cc(OCc2ccc(CN3CCOCC3=O)cc2)cnn1 [Example 434, 4-(4-(((6-(((1-amino-5,7-dimethylisoquinolin-6-yl)methyl)amino)pyridazin-4-yl)oxy)methyl)benzyl)morpholin-3-one] | < 1
Cc1cc2c(N)nccc2c(C)c1CNC(=O)c1cnn(Cc2ccc(C3CCN(C)C3=O)cc2)c1 (centres unmarked) [Example I-475, N-((1-amino-5,7-dimethylisoquinolin-6-yl)methyl)-1-(4-(1-methyl-2-oxopyrrolidin-3-yl)benzyl)-1H-pyrazole-4-carboxamide] | 1 to 10
Cc1cc2nc(Cn3cc(C(=O)NCc4c(C)cc5c(N)nccc5c4C)cn3)cn2cc1Br [Example 135, N-((1-amino-5,7-dimethylisoquinolin-6-yl)methyl)-1-((6-bromo-7-methylimidazo[1,2-a]pyridin-2-yl)methyl)-1H-pyrazole-4-carboxamide] | < 1
Cc1cc2c(N)nccc2c(C)c1CNC(=O)c1cnn(Cc2ccc(F)cc2)c1 [Example 39, N-((1-amino-5,7-dimethylisoquinolin-6-yl)methyl)-1-(4-fluorobenzyl)-1H-pyrazole-4-carboxamide] | 100 to 1000

SMILES | EC50 [nM]
Cc1cc2c(N)nccc2c(C)c1CNc1cc(OCc2ccc(Cn3ccccc3=O)cc2)cnn1 [Example 436, 1-(4-(((6-(((1-amino-5,7-dimethylisoquinolin-6-yl)methyl)amino)pyridazin-4-yl)oxy)methyl)benzyl)pyridin-2(1H)-one] | < 1
Cc1ccc2nc(Cn3cc(C(=O)NCc4c(C)cc5c(NC(=O)OCc6ccccc6)nccc5c4C)cn3)cn2c1 [Example 7, benzyl (5,7-dimethyl-6-((1-((6-methylimidazo[1,2-a]pyridin-2-yl)methyl)-1H-pyrazole-4-carboxamido)methyl)isoquinolin-1-yl)carbamate] | 10 to 100
Cc1cc2c(N)nccc2c(C)c1CNC(=O)c1cnn(Cc2ccc(Cc3cccn(CC(F)(F)F)c3=O)cc2)c1 [Example 196, N-((1-amino-5,7-dimethylisoquinolin-6-yl)methyl)-1-(4-((2-oxo-1-(2,2,2-trifluoroethyl)-1,2-dihydropyridin-3-yl)methyl)benzy1)-1H-pyrazole-4-carboxamide] | 1 to 10
Cc1ccc2nc(C(C)n3cc(C(=O)NCc4c(C)cc5c(N)nccc5c4C)cn3)cn2c1 (single isomer, unassigned) [Example 11, (R*)-N-((1-amino-5,7-dimethylisoquinolin-6-yl)methyl)-1-(1-(6-methylimidazo[1,2-a]pyridin-2-yl)ethyl)-1H-pyrazole-4-carboxamide] | < 1
Cc1cc2c(N)nccc2c(C)c1CNc1cc(OCc2ccc(Oc3cccn(C)c3=O)cc2)cnn1 [Example 427, 3-(4-(((6-(((1-amino-5,7-dimethylisoquinolin-6-yl)methyl)amino)pyridazin-4-yl)oxy)methyl)phenoxy)-1-methylpyridin-2(1H)-one] | < 1
Cc1cc2c(N)nccc2c(C)c1CNc1cc(NCc2cc(C)c(OCC(=O)N(C)C)c(C)c2)ncn1 [Example 348, 2-(4-(((6-(((1-amino-5,7-dimethylisoquinolin-6-yl)methyl)amino)pyrimidin-4-yl)amino)methyl)-2,6-dimethylphenoxy)-N,N-dimethylacetamide] | 1 to 10
Cc1cc2c(N)nccc2c(C)c1CNC(=O)c1cnn(Cc2ccc3ncc(O)cc3c2)c1 [Example 164, N-((1-amino-5,7-dimethylisoquinolin-6-yl)methyl)-1-((3-hydroxyquinolin-6-yl)methyl)-1H-pyrazole-4-carboxamide] | 1 to 10
Cc1cc2c(N)nccc2c(C)c1CNc1cc(OCc2ccc(Cn3cccn3)cn2)cnn1 [Example 446, 6-(((5-((5-((1H-pyrazol-1-yl)methyl)pyridin-2-yl)methoxy)pyridazin-3-yl)amino)methyl)-5,7-dimethylisoquinolin-1-amine] | < 1
Cc1cc2c(N)nccc2c(C)c1CNC(=O)c1cnn(Cc2ccc(CC(=O)N(C)C)cc2)c1 [Example 63, N-((1-amino-5,7-dimethylisoquinolin-6-yl)methyl)-1-(4-(2-(dimethylamino)-2-oxoethyl)benzyl)-1H-pyrazole-4-carboxamide] | < 1
Cc1cc2c(N)nccc2c(C)c1CNc1cc(NCc2ccc3c(-n4cccn4)cccc3c2)ncn1 [Example 246, N4-((5-(1H-pyrazol-1-yl)naphthalen-2-yl)methyl)-N6-((1-amino-5,7-dimethylisoquinolin-6-yl)methyl)pyrimidine-4,6-diamine] | < 1
Cc1cc2c(N)nccc2c(C)c1CNc1cc(OCc2cn3cc(C(F)(F)F)ccc3n2)cnn1 [Example 424, 5,7-dimethyl-6-(((5-((6-(trifluoromethyl)imidazo[1,2-a]pyridin-2-yl)methoxy)pyridazin-3-yl)amino)methyl)isoquinolin-1-amine] | < 1
Cc1cc2c(N)nccc2c(C)c1CNC(=O)c1cnn(Cc2ccc(CC(=O)N3CCCCC3)cc2)c1 [Example 223, N-((1-amino-5,7-dimethylisoquinolin-6-yl)methyl)-1-(4-(2-oxo-2-(piperidin-1-yl)ethyl)benzyl)-1H-pyrazole-4-carboxamide] | 1 to 10
Cc1cc2c(N)nccc2c(C)c1CNC(=O)c1cnn(Cc2ccccc2C(F)(F)F)c1 [Example 42, N-((1-amino-5,7-dimethylisoquinolin-6-yl)methyl)-1-(2-(trifluoromethyl)benzyl)-1H-pyrazole-4-carboxamide] | > 1000
Cc1cc2c(N)nccc2c(C)c1CNc1cc(N(C)Cc2ccc3ncccc3c2)ncn1 [Example 308, N^4-((1-amino-5,7-dimethylisoquinolin-6-yl)methyl)-N^6-methyl-N^6-(quinolin-6-ylmethyl)pyrimidine-4,6-diamine] | 10 to 100
Cc1cc2c(N)nccc2c(C)c1CNc1cc(NCc2ccc(OCc3ccccn3)cc2)ncn1 [Example 349, N^4-((1-amino-5,7-dimethylisoquinolin-6-yl)methyl)-N^6-(4-(pyridin-2-ylmethoxy)benzyl)pyrimidine-4,6-diamine, formic acid salt] | 1 to 10
Cc1cc2c(N)nccc2c(C)c1CNc1cc(OCc2cn3cc(C4CC4)ccc3n2)nc(C(=O)O)n1 [Example 487, 4-(((1-amino-5,7-dimethylisoquinolin-6-yl)methyl)amino)-6-((6-cyclopropylimidazo[1,2-a]pyridin-2-yl)methoxy)pyrimidine-2-carboxylic acid] | < 1
